Assay results: US4010261A, “Method to prevent reproduction with [Des-Gly]^10 -GN-RH nonadeptide amide analogs in position” (Abbott Laboratories, priority 1974, dated 1977)

Tests used:
[1] = test system: pregnant rats; test: Implantation in pregnant rats with various compounds under Compound N (Examples 7-10); assay type: in vivo, rat
Procedure: a) number of animals with implants/number of animals treated
b) mean implantation sites (based on those with implantation sites)
c) viable fetuses/total number of fetuses (successful pregnancy)
In this experiment, the activity of various compounds encompassed under Compound N are desmonstrated. Groups of 8 - 10 pregnant rats were injected subcutaneously b.i.d. with 0.5 ml. of the medium shown in Example 1 containing the compound and dose identified below. The results are expressed as explained in Example 2.

[2] = test system: rats treated with Compound N; test: Exogenous estradiol given to Compound N-treated pregnant rats; assay type: in vivo, rat; conditions: estradiol 0.1 μg. s.c. in sesame oil on days 4 and 5 of gestation, rats treated with Compound N days 2-6
Procedure: More specifically, if estradiol is subcutaneously given to rats treated with Compound N (days 2 - 6 of gestation) on days 4 and 5 of gestation at a dose of as little as 0.1 μg. each (dissolved in sesame oil), implantation already takes place in 3 of 8 animals, producing 100% viable embryos.

## CCNC(=O)[C@@H]1CCCN1C(=O)[C@H](CCCNC(=N)N)NC(=O)[C@H](CC(C)C)NC(=O)[C@@H](C)NC(=O)[C@H](Cc1ccc(O)cc1)NC(=O)[C@H](CO)NC(=O)[C@H](Cc1c[nH]c2ccccc12)NC(=O)[C@H](Cc1c[nH]cn1)NC(=O)[C@@H]1CCC(=O)N1 [Example 8, L-pGlu-L-His-L-Trp-L-Ser-L-Tyr-X-L-Leu-L-Arg-L-Pro-NH-R]
[1]; Dose 10 μg. s.c. b.i.d.
  a: number of animals with implants/number of animals treated: 0/10
  b: mean implantation sites (based on those with implantation sites): 0
  c: viable fetuses/total number of fetuses (successful pregnancy): 0%

## CNC(=O)[C@@H]1CCCN1C(=O)[C@H](CCCNC(=N)N)NC(=O)[C@H](CC(C)C)NC(=O)[C@@H](CC(C)C)NC(=O)[C@H](Cc1ccc(O)cc1)NC(=O)[C@H](CO)NC(=O)[C@H](Cc1c[nH]c2ccccc12)NC(=O)[C@H](Cc1c[nH]cn1)NC(=O)[C@@H]1CCC(=O)N1 [Example 10, L-pGlu-L-His-L-Trp-L-Ser-L-Tyr-X-L-Leu-L-Arg-L-Pro-NH-R]
[1]; Dose 25 μg. s.c. b.i.d.
  a: number of animals with implants/number of animals treated: 0/10
  b: mean implantation sites (based on those with implantation sites): 0
  c: viable fetuses/total number of fetuses (successful pregnancy): 0%

## C[C@]12CC[C@@H]3c4ccc(O)cc4CC[C@H]3[C@@H]1CC[C@@H]2O [estradiol]
[2]
  animals in which implantation takes place: 3 of 8
  viable embryos: 100%
